Assay results reported in ChEMBL document CHEMBL1128878, “Simple compounds, 2-alkyl-2-amino-1,3-propanediols have potent immunosuppressive activity” (Bioorg Med Chem Lett, 1995).

Key:
Mus musculus = species on record: Mus musculus; experiment: Inhibition of mouse allogenic mixed leukocyte response (MLR); format: functional
Rattus norvegicus [1] = experiment: Compound was evaluated in vivo for the immunosuppressive activity on rat skin allograft at ip dose of 1 mg/Kg; format: functional
Rattus norvegicus [2] = experiment: Compound was evaluated in vivo for the immunosuppressive activity on rat skin allograft at ip dose of 10 mg/Kg; format: functional
Rattus norvegicus [3] = experiment: Compound was evaluated in vivo for the immunosuppressive activity on rat skin allograft at ip dose of 3 mg/Kg; format: functional
Rattus norvegicus [4] = experiment: Compound was evaluated in vivo for the immunosuppressive activity on rat skin allograft at ip dose of 30 mg/Kg; format: functional
Rattus norvegicus [5] = experiment: Compound was evaluated in vivo for the immunosuppressive activity on rat skin allograft at ip dose of 0.1 mg/Kg; format: functional
Rattus norvegicus [6] = experiment: Compound was evaluated in vivo for the immunosuppressive activity on rat skin allograft at ip dose of 0.3 mg/Kg; format: functional
Rattus norvegicus [7] = experiment: Compound was evaluated in vivo for the immunosuppressive activity on rat skin allograft at ip dose of 0.03 mg/Kg; format: functional
Rattus norvegicus [8] = experiment: Compound was evaluated in vivo for the immunosuppressive activity on rat skin allograft at ip dose of 1 mg/Kg; toxic (animals died); format: functional, organism-based
Rattus norvegicus [9] = experiment: Compound was evaluated in vivo for the immunosuppressive activity on rat skin allograft at ip dose of 10 mg/Kg; toxic (animals died); format: ADME, organism-based

Row | SMILES | IC50 (Mus musculus) [nM] | other results
1 | CCCCCCCCCCCCCCCCCCCCC(N)(CO)CO | 190 | –
2 | CCCCCCCCC(N)(CO)CO | 3700 | –
3 | CCCCCCCCCCCCC/C=C/C[C@@H](O)[C@H](O)C(N)(CO)CO | 56 | –
4 | CCCCCCCCCCCCCCCCCCCCCCC(N)(CO)CO | 1600 | –
5 | CCCCCCCCCCCCC(N)(CO)CO | 270 | –
6 | CCCCCCC(O)CCCCCC/C=C/C[C@@H](O)[C@H](O)C(N)(CO)CO (some centres undefined) | 4.7 | –
7 | CCCCCCCCCCCCCCCCCCC(N)C(=O)O (centres undefined) | 130 | –
8 | CCCCCCCCCCCCCC(N)(CO)CO | 12 | –
9 | CCCCCCC(O)CCCCCCCCC[C@@H](O)[C@H](O)C(N)(CO)CO (some centres undefined) | 1630 | –
10 | C/C=C/C[C@@H](C)[C@@H](O)[C@H]1C(=O)N[C@@H](CC)C(=O)N(C)CC(=O)N(C)[C@@H](CC(C)C)C(=O)N[C@@H](C(C)C)C(=O)N(C)[C@@H](CC(C)C)C(=O)N[C@@H](C)C(=O)N[C@H](C)C(=O)N(C)[C@@H](CC(C)C)C(=O)N(C)[C@@H](CC(C)C)C(=O)N(C)[C@@H](C(C)C)C(=O)N1C [CYCLOSPORINE] | – | MST (Rattus norvegicus [1]): 7.3 days; MST (Rattus norvegicus [2]): 15.2 days; MST (Rattus norvegicus [3]): 10.8 days; MST (Rattus norvegicus [4]): 19.2 days
11 | CCCCCCCCCCCCCCCCC(N)(CO)CO | 10 | –
12 | CCCCCCC(=O)CCCCCC/C=C/C[C@@H](O)[C@H](O)[C@@](N)(CO)C(=O)O [MYRIOCIN] | 3 | MST (Rattus norvegicus [5]): 9.2 days; MST (Rattus norvegicus [6]): 11.2 days; MST (Rattus norvegicus [7]): 7.8 days; MST (Rattus norvegicus [8]): Toxic (animals died)
13 | CCCCCCCCCCCCCCC(N)(CO)CO | 5.9 | –
14 | CCCCCCCCCCCCCCCC(N)(CO)CO | 2.9 | MST (Rattus norvegicus [5]): 14 days; MST (Rattus norvegicus [1]): 45.3 days; MST (Rattus norvegicus [6]): 33.5 days; MST (Rattus norvegicus [3]): 57.8 days; MST (Rattus norvegicus [7]): 10.8 days; MST (Rattus norvegicus [9]): Toxic (animals died)
15 | CCCCCCCCCCCCCCCC[C@@H](O)[C@H](O)C(N)(CO)CO | 320 | –
16 | CCCCCCCCCCC(N)(CO)CO | 440 | –
